Reference: PubChem BioAssay AID2310 (SRMLSC, 2010)

Tested on: virus CPE inhibition assay, host cell viability
Test: dose response, CPE inhibition, cell viability (AID 2310)
[1] = measured here: HTS CPE inhibition EC50
[2] = measured here: HTS cell viability IC50
[3] = measured here: cytotoxicity, cell viability IC50

SMILES	EC50	EC50 [1]	CC50 [2]	CC50 [3]
COc1ccc(-c2nc(=O)[nH]c3c2CCc2ccccc2-3)cc1	960 nM	1100 nM	> 20000 nM	> 50000 nM
Cc1cccc(C2NC(=O)NC3=C2CCc2ccccc23)c1 (stereo unspecified)	700 nM	908 nM	> 20000 nM	> 50000 nM
O=C(Nc1c(-c2ccccc2)nc2sccn12)c1ccccc1	634 nM	634 nM	> 60000 nM	> 60000 nM
O=C1NC2=C(CCc3ccccc32)C(c2ccc3c(c2)OCO3)N1 (stereo unspecified)	390 nM	> 20000 nM	17500 nM	29600 nM
